In PubChem BioAssay AID1259407 (Chemical Carcinogenesis Research Information System (CCRIS), 2018):
Calls of active or inactive are those of the source. No rule for the calls is given here.

Test system: CCRIS mutagenicity, Ames/micronucleus/aberration tests
Experiment: CCRIS mutagenicity studies
[1] = Test System: AMES SALMONELLA TYPHIMURIUM, Strain/Indicator: TA98, Metabolic Activation: NONE, Method: PREINCUBATION
[2] = Test System: AMES SALMONELLA TYPHIMURIUM, Strain/Indicator: TA100, Metabolic Activation: NONE, Method: PREINCUBATION
[3] = Test System: AMES SALMONELLA TYPHIMURIUM, Strain/Indicator: TA102, Metabolic Activation: NONE, Method: PREINCUBATION
[4] = Test System: AMES SALMONELLA TYPHIMURIUM, Strain/Indicator: TA102, Metabolic Activation: RAT, LIVER, S-9, AROCLOR 1254, Method: PREINCUBATION

SMILES: COc1ccccc1O
- mutagenic call (End Point: IN VITRO CHROMOSOMAL ABERRATIONS, Test System: SYRIAN HAMSTER EMBRYO (SHE) CELLS, Metabolic Activation: NONE): active; positive (structural changes)
- mutagenic call (Test System: AMES SALMONELLA TYPHIMURIUM, Strain/Indicator: TA97, Metabolic Activation: HAMSTER, LIVER, S-9, AROCLOR 1254 (10 OR 30%), Method: VAPOR CHAMBER): inactive; negative
- mutagenic call (Test System: AMES SALMONELLA TYPHIMURIUM, Strain/Indicator: TA97, Metabolic Activation: NONE, Method: VAPOR CHAMBER): inactive; negative
- mutagenic call (Test System: AMES SALMONELLA TYPHIMURIUM, Strain/Indicator: TA97, Metabolic Activation: RAT, LIVER, S-9, AROCLOR 1254 (5, 10 OR 30%), Method: VAPOR CHAMBER): inactive; negative
- mutagenic call (Test System: AMES SALMONELLA TYPHIMURIUM, Strain/Indicator: TA98, Metabolic Activation: HAMSTER, LIVER, S-9, AROCLOR 1254 (10 OR 30%), Method: VAPOR CHAMBER): inactive; negative
- mutagenic call (Test System: AMES SALMONELLA TYPHIMURIUM, Strain/Indicator: TA98, Metabolic Activation: HAMSTER, LIVER, S-9, AROCLOR 1254 (30%), Method: PREINCUBATION): inactive; negative
- mutagenic call [1]: inactive; negative
- mutagenic call (Test System: AMES SALMONELLA TYPHIMURIUM, Strain/Indicator: TA98, Metabolic Activation: NONE, Method: VAPOR CHAMBER): inactive; negative
- mutagenic call (Test System: AMES SALMONELLA TYPHIMURIUM, Strain/Indicator: TA98, Metabolic Activation: RAT, LIVER, S-9, AROCLOR 1254 (10 OR 30%), Method: VAPOR CHAMBER): inactive; negative
- mutagenic call (Test System: AMES SALMONELLA TYPHIMURIUM, Strain/Indicator: TA98, Metabolic Activation: RAT, LIVER, S-9, AROCLOR 1254 (30%), Method: PREINCUBATION): inactive; negative
- mutagenic call (Test System: AMES SALMONELLA TYPHIMURIUM, Strain/Indicator: TA98, Metabolic Activation: RAT, LIVER, S-9, AROCLOR 1254, Method: PREINCUBATION): inactive; negative
- mutagenic call (Test System: AMES SALMONELLA TYPHIMURIUM, Strain/Indicator: TA100, Metabolic Activation: HAMSTER, LIVER, S-9, AROCLOR 1254 (5, 10 OR 30%), Method: VAPOR CHAMBER): inactive; negative
- mutagenic call (Test System: AMES SALMONELLA TYPHIMURIUM, Strain/Indicator: TA100, Metabolic Activation: HAMSTER, LIVER, S-9, AROCLOR 1254 (30%), Method: PREINCUBATION): inactive; negative
- mutagenic call [2]: inactive; negative
- mutagenic call (Test System: AMES SALMONELLA TYPHIMURIUM, Strain/Indicator: TA100, Metabolic Activation: NONE, Method: VAPOR CHAMBER): inactive; negative
- mutagenic call (Test System: AMES SALMONELLA TYPHIMURIUM, Strain/Indicator: TA100, Metabolic Activation: RAT, LIVER, S-9, AROCLOR 1254 (5, 10 OR 30%), Method: VAPOR CHAMBER): inactive; negative
- mutagenic call (Test System: AMES SALMONELLA TYPHIMURIUM, Strain/Indicator: TA100, Metabolic Activation: RAT, LIVER, S-9, AROCLOR 1254 (30%), Method: PREINCUBATION): inactive; negative
- mutagenic call (Test System: AMES SALMONELLA TYPHIMURIUM, Strain/Indicator: TA100, Metabolic Activation: RAT, LIVER, S-9, AROCLOR 1254, Method: PREINCUBATION): inactive; negative
- mutagenic call [3]: inactive; negative
- mutagenic call [4]: inactive; negative
- mutagenic call (Test System: AMES SALMONELLA TYPHIMURIUM, Strain/Indicator: TA1535, Metabolic Activation: HAMSTER, LIVER, S-9, AROCLOR 1254 (10 OR 30%), Method: VAPOR CHAMBER): inactive; negative
- mutagenic call (Test System: AMES SALMONELLA TYPHIMURIUM, Strain/Indicator: TA1535, Metabolic Activation: NONE, Method: VAPOR CHAMBER): inactive; negative
- mutagenic call (Test System: AMES SALMONELLA TYPHIMURIUM, Strain/Indicator: TA1535, Metabolic Activation: RAT, LIVER, S-9, AROCLOR 1254 (10 OR 30%), Method: VAPOR CHAMBER): inactive; negative

SMILES: NCCNCCNCCN
- mutagenic call (Test System: AMES SALMONELLA TYPHIMURIUM, Strain/Indicator: TA98, Metabolic Activation: HAMSTER, LIVER, S-9, AROCLOR 1254 (10%), Method: PREINCUBATION): active; positive
- mutagenic call [1]: active; positive
- mutagenic call (Test System: AMES SALMONELLA TYPHIMURIUM, Strain/Indicator: TA98, Metabolic Activation: NONE, Method: STANDARD PLATE): active; positive
- mutagenic call (Test System: AMES SALMONELLA TYPHIMURIUM, Strain/Indicator: TA98, Metabolic Activation: RAT, LIVER, S-9, AROCLOR 1254 (10%), Method: PREINCUBATION): active; positive
- mutagenic call (Test System: AMES SALMONELLA TYPHIMURIUM, Strain/Indicator: TA98, Metabolic Activation: RAT, LIVER, S-9, PCB, Method: PREINCUBATION): active; positive
- mutagenic call (Test System: AMES SALMONELLA TYPHIMURIUM, Strain/Indicator: TA100, Metabolic Activation: HAMSTER, LIVER, S-9, AROCLOR 1254 (10%), Method: PREINCUBATION): active; positive
- mutagenic call [2]: active; positive
- mutagenic call (Test System: AMES SALMONELLA TYPHIMURIUM, Strain/Indicator: TA100, Metabolic Activation: NONE, Method: STANDARD PLATE): active; positive
- mutagenic call (Test System: AMES SALMONELLA TYPHIMURIUM, Strain/Indicator: TA100, Metabolic Activation: RAT, LIVER, S-9, AROCLOR 1254 (10%), Method: PREINCUBATION): active; positive
- mutagenic call (Test System: AMES SALMONELLA TYPHIMURIUM, Strain/Indicator: TA100, Metabolic Activation: RAT, LIVER, S-9, PCB, Method: PREINCUBATION): active; positive
- mutagenic call (Test System: AMES SALMONELLA TYPHIMURIUM, Strain/Indicator: TA1535, Metabolic Activation: HAMSTER, LIVER, S-9, AROCLOR 1254 (10%), Method: PREINCUBATION): active; positive
- mutagenic call (Test System: AMES SALMONELLA TYPHIMURIUM, Strain/Indicator: TA1535, Metabolic Activation: NONE, Method: PREINCUBATION): active; positive
- mutagenic call (Test System: AMES SALMONELLA TYPHIMURIUM, Strain/Indicator: TA1535, Metabolic Activation: NONE, Method: STANDARD PLATE): inactive; negative
- mutagenic call (Test System: AMES SALMONELLA TYPHIMURIUM, Strain/Indicator: TA1535, Metabolic Activation: RAT, LIVER, S-9, AROCLOR 1254 (10%), Method: PREINCUBATION): active; positive
- mutagenic call (Test System: AMES SALMONELLA TYPHIMURIUM, Strain/Indicator: TA1535, Metabolic Activation: RAT, LIVER, S-9, AROCLOR 1254, Method: STANDARD PLATE): active; positive
- mutagenic call (Test System: AMES SALMONELLA TYPHIMURIUM, Strain/Indicator: TA1537, Metabolic Activation: HAMSTER, LIVER, S-9, AROCLOR 1254 (10%), Method: PREINCUBATION): active; positive
- mutagenic call (Test System: AMES SALMONELLA TYPHIMURIUM, Strain/Indicator: TA1537, Metabolic Activation: NONE, Method: PREINCUBATION): active; positive
- mutagenic call (Test System: AMES SALMONELLA TYPHIMURIUM, Strain/Indicator: TA1537, Metabolic Activation: NONE, Method: STANDARD PLATE): active; positive
- mutagenic call (Test System: AMES SALMONELLA TYPHIMURIUM, Strain/Indicator: TA1537, Metabolic Activation: RAT, LIVER, S-9, AROCLOR 1254 (10%), Method: PREINCUBATION): active; positive
- mutagenic call (Test System: AMES SALMONELLA TYPHIMURIUM, Strain/Indicator: TA1537, Metabolic Activation: RAT, LIVER, S-9, AROCLOR 1254, Method: STANDARD PLATE): inactive; negative
- mutagenic call (Test System: AMES SALMONELLA TYPHIMURIUM, Strain/Indicator: TA1538, Metabolic Activation: NONE, Method: STANDARD PLATE): active; positive
- mutagenic call (Test System: AMES SALMONELLA TYPHIMURIUM, Strain/Indicator: TA1538, Metabolic Activation: RAT, LIVER, S-9, AROCLOR 1254, Method: STANDARD PLATE): inactive; negative
- mutagenic call (Test System: CHINESE HAMSTER OVARY, Strain/Indicator: CHO (HGPRT)/6-THIOGUANINE, Metabolic Activation: NONE): inactive; negative
- mutagenic call (Test System: CHINESE HAMSTER OVARY, Strain/Indicator: CHO (HGPRT)/6-THIOGUANINE, Metabolic Activation: RAT, LIVER, S-9, AROCLOR 1254): inactive; negative
- mutagenic call (Test System: UDS RAT HEPATOCYTES, Strain/Indicator: THY INCORP, Metabolic Activation: NONE, Method: SCINTILLATION SPECTROMETRY): active; positive

SMILES: O.O.O=C([O-])[C@H](O)[C@@H](O)[C@H](O)[C@H](O)CO.O=C([O-])[C@H](O)[C@@H](O)[C@H](O)[C@H](O)CO.[Fe+2]
- mutagenic call (Test System: AMES SALMONELLA TYPHIMURIUM, Strain/Indicator: TA97, Metabolic Activation: NONE, Method: PREINCUBATION): inactive; negative
- mutagenic call (Test System: AMES SALMONELLA TYPHIMURIUM, Strain/Indicator: TA97, Metabolic Activation: RAT, LIVER, S-9, AROCLOR 1254, Method: PREINCUBATION): inactive; negative
- mutagenic call [3]: inactive; negative
- mutagenic call [4]: inactive; negative
